Reference: US20260055079A1, “PHTHALAZINONE COMPOUNDS AS PARP7 INHIBITORS” (AZKARRA THERAPEUTICS, INC., priority 2022, published 2026)

target: His-GST-PARP7 (Homo sapiens (Human), UniProt Q7Z3E1); assay: PARP7 biochemical assay; conditions: not given
Sequence (Q7Z3E1 whole entry): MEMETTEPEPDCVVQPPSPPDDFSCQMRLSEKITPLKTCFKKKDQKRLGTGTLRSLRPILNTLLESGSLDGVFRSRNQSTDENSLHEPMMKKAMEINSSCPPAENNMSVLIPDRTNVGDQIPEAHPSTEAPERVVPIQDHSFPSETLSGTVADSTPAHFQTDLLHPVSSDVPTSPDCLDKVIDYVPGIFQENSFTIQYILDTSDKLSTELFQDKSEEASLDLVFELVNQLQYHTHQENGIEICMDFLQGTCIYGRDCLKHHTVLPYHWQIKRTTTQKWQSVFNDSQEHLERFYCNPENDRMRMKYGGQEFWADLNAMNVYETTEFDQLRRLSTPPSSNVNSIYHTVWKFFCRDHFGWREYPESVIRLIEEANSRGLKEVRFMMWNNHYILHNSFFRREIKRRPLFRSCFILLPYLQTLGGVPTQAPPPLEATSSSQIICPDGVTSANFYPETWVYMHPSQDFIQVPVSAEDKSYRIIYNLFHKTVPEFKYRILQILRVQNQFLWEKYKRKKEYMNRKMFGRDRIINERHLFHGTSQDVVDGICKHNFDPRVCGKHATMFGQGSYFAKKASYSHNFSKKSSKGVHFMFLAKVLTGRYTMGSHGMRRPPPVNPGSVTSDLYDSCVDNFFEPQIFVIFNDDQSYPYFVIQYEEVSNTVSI

With `O=C(c1cc(Cc2n[nH]c(=O)c3ccc(OC4CCC4)cc23)ccc1F)N1C[C@H]2CC[C@@H](C1)N2C(=O)C1CC1` [Example 107, 6-Cyclobutoxy-4-(3-(8-(cyclopropanecarbonyl)-3,8-diazabicyclo[3.2.1]octane-3-carbonyl)-4-fluorobenzyl)phthalazin-1(2H)-one] the IC50 was 100 to 500 nM.

same assay, conditions: read-out: PARP7 IC50

First: N#Cc1ccc(N2CC(NC(=O)c3cc(Cc4n[nH]c(=O)c5ccc(OC6CCC6)cc45)ccc3F)C2)nc1 [Example 204, N-(1-(5-Cyanopyridin-2-yl)azetidin-3-yl)-5-((7-cyclobutoxy-4-oxo-3,4-dihydrophthalazin-1-yl)methyl)-2-fluorobenzamide]
Second: O=C(C1CC1)N1CCN(c2noc3ccc(Cc4n[nH]c(=O)c5ccc(OC6CCC6)cc45)cc23)CC1 [Example 210, 6-cyclobutoxy-4-((3-(4-(cyclopropanecarbonyl)piperazin-1-yl)benzo[d]isoxazol-5-yl)methyl)phthalazin-1(2H)-one]
The IC50 of the first is higher: over 2000 nM for the first, 500 to 2000 nM for the second.

Compared with `CC#Cc1ccc2c(=O)[nH]nc(Cc3ccc4c(c3)C(=O)N(CCN(CC)c3ccc(C#N)cn3)C4)c2c1` [Example 75, 6-(Ethyl(2-(1-oxo-6-((4-oxo-7-(prop-1-ynyl)-3,4-dihydrophthalazin-1-yl)methyl)isoindolin-2-yl)ethyl)amino)nicotinonitrile], `N#Cc1ccc(N2CC3CN(C(=O)c4cc(Cc5n[nH]c(=O)c6ccc(OC7CCC7)cc56)ccc4F)CC3C2)nc1` (stereo not drawn) [Example 115, 6-(5-(5-((7-Cyclobutoxy-4-oxo-3,4-dihydrophthalazin-1-yl)methyl)-2-fluorobenzoyl)hexahydropyrrolo[3,4-c]pyrrol-2(1H)-yl)nicotinonitrile] is lower in IC50: over 2000 nM for the first, 100 to 500 nM for the second.

First: O=c1[nH]nc(Cc2cccc3c(N4CCN(c5ncc(C(F)(F)F)cn5)CC4)noc23)c2cc(OC3CCC3)ccc12 [Example 207, 6-Cyclobutoxy-4-((3-(4-(5-(trifluoromethyl)pyrimidin-2-yl)piperazin-1-yl)benzo[d]isoxazol-7-yl)methyl)phthalazin-1(2H)-one]
Second: O=C(c1cc(Cc2n[nH]c(=O)c3ccc(OC4CCC4)cc23)ccc1F)N1CCn2c(CF)nnc2C1 [Example 164, 6-Cyclobutoxy-4-(4-fluoro-3-(3-(fluoromethyl)-5,6,7,8-tetrahydro-[1,2,4]triazolo[4,3-a]pyrazine-7-carbonyl)benzyl)phthalazin-1(2H)-one]
The IC50 of the first is higher: over 2000 nM for the first, under 50 nM for the second. The second is the more potent here.

First: CN1CCN(C(=O)c2ccc(Cc3n[nH]c(=O)c4c(F)cccc34)cc2)CC1 [Example 186, 8-Fluoro-4-(4-(4-methylpiperazine-1-carbonyl)benzyl)phthalazin-1(2H)-one]
Second: O=C(c1cc(Cc2n[nH]c(=O)c3ccc(OC4CCC4)cc23)ccc1F)N1CC2CCC1CN2c1ncc(C(F)(F)F)cn1 (stereo not drawn) [Example 144, 6-cyclobutoxy-4-(4-fluoro-3-(5-(5-(trifluoromethyl)pyrimidin-2-yl)-2,5-diazabicyclo[2.2.2]octane-2-carbonyl)benzyl)phthalazin-1(2H)-one]
The IC50 of the first is higher: over 2000 nM for the first, under 50 nM for the second. The second is the more potent here.

`CC#Cc1ccc2c(=O)[nH]nc(Cc3ccc(F)c(C#N)c3)c2c1` [Example 76, 2-Fluoro-5-((4-oxo-7-(prop-1-yn-1-yl)-3,4-dihydrophthalazin-1-yl)methyl)benzonitrile] and `O=C(c1cc(Cc2n[nH]c(=O)c3ccc(OC4CCC4)cc23)ccc1F)N1CC2CN(c3ncc(C(F)(F)F)cn3)CC2C1` (stereo not drawn) [Example 147, 6-cyclobutoxy-4-(4-fluoro-3-(5-(5-(trifluoromethyl)pyrimidin-2-yl)octahydropyrrolo[3,4-c]pyrrole-2-carbonyl)benzyl)phthalazin-1(2H)-one] cannot be ordered by IC50: over 2000 nM for the first, over 2000 nM for the second.

Compared with `CN(C(=O)CC#N)C1CN(C(=O)c2cc(Cc3n[nH]c(=O)c4ccc(OC5CCC5)cc34)ccc2F)C1` [Example 118, 2-Cyano-N-(1-(5-((7-cyclobutoxy-4-oxo-3,4-dihydrophthalazin-1-yl)methyl)-2-fluorobenzoyl)azetidin-3-yl)-N-methylacetamide], `Cc1cnc(N(C)C2CN(C(=O)c3cc(Cc4n[nH]c(=O)c5ccc(OC6CCC6)cc45)ccc3F)C2)n1C` [Example 110, 6-Cyclobutoxy-4-(3-(3-((1,5-dimethyl-1H-imidazol-2-yl)(methyl)amino)azetidine-1-carbonyl)-4-fluorobenzyl)phthalazin-1(2H)-one] is lower in IC50: 500 to 2000 nM for the first, 100 to 500 nM for the second. The second is the more potent here.

Compared with `O=C(c1cc(Cl)cc(Cc2n[nH]c(=O)c3ccc(OC4CCC4)cc23)c1)N1CCN(c2ncc(C(F)(F)F)cn2)CC1` [Example 174, 4-(3-chloro-5-(4-(5-(trifluoromethyl)pyrimidin-2-yl)piperazine-1-carbonyl)benzyl)-6-cyclobutoxyphthalazin-1(2H)-one], `N#Cc1ccnc(N2CCN(C(=O)c3cc(Cc4n[nH]c(=O)c5ccc(OC6CCC6)cc45)cc4c3OCC4)CC2)c1` [Example 175, 2-(4-(5-((7-cyclobutoxy-4-oxo-3,4-dihydrophthalazin-1-yl)methyl)-2,3-dihydrobenzofuran-7-carbonyl)piperazin-1-yl)isonicotinonitrile] is higher in IC50: under 50 nM for the first, 50 to 100 nM for the second. The first is the more potent here.

First: N#Cc1ccc(N2C[C@H]3CC[C@@H](C2)N3C(=O)c2cc(Cc3n[nH]c(=O)c4ccc(OC5CCC5)cc34)ccc2F)nc1 [Example 96, 6-(8-(5-((7-Cyclobutoxy-4-oxo-3,4-dihydrophthalazin-1-yl)methyl)-2-fluorobenzoyl)-3,8-diazabicyclo[3.2.1]octan-3-yl)nicotinonitrile]
Second: CN(C(=O)CCC(F)(F)F)C1CN(C(=O)c2cc(Cc3n[nH]c(=O)c4ccc(OC5CCC5)cc34)ccc2F)C1 [Example 114, N-(1-(5-((7-cyclobutoxy-4-oxo-3,4-dihydrophthalazin-1-yl)methyl)-2-fluorobenzoyl)azetidin-3-yl)-4,4,4-trifluoro-N-methylbutanamide]
The IC50 of the first is lower: under 50 nM for the first, 100 to 500 nM for the second. The first is the more potent here.

Going from `N#Cc1ccc(N2CCN(c3noc4cc(Cc5n[nH]c(=O)c6ccc(OC7CCC7)cc56)ccc34)CC2)nc1` [Example 214, 6-(4-(6-((7-Cyclobutoxy-4-oxo-3,4-dihydrophthalazin-1-yl)methyl)benzo[d]isoxazol-3-yl)piperazin-1-yl)nicotinonitrile] to `O=C(c1cccc(Cc2n[nH]c(=O)c3ccc(OC4CCC4)cc23)c1)N1CCN(c2ncc(C(F)(F)F)cn2)CC1` [Example 170, 6-cyclobutoxy-4-(3-(4-(5-(trifluoromethyl)pyrimidin-2-yl)piperazine-1-carbonyl)benzyl)phthalazin-1(2H)-one], the IC50 falls from over 2000 nM to under 50 nM. The second is the more potent here.

Compared with `CN(c1cc(C#N)ccn1)C1CN(C(=O)c2cc(Cc3n[nH]c(=O)c4ccc(OC5COC5)cc34)ccc2F)C1` [Example 124, 2-((1-(2-fluoro-5-((7-(oxetan-3-yloxy)-4-oxo-3,4-dihydrophthalazin-1-yl)methyl)benzoyl)azetidin-3-yl)(methyl)amino)isonicotinonitrile], “6-(3-(5-((7-Cyclobutoxy-4-oxo-3,4-dihydrophthalazin-1-yl)methyl)-2-fluorobenzoyl)-3,8-diazabicyclo[3.2.1]octan-8-yl)nicotinonitrile [Example 99]” is lower in IC50: over 2000 nM for the first, under 50 nM for the second. The second is the more potent here.

First: O=C(c1cc(Cc2n[nH]c(=O)c3ccc(OC4CCC4)cc23)ccc1F)N1CCC2C1CCN2c1ncc(C(F)(F)F)cn1 (stereo not drawn) [Example 103, 6-Cyclobutoxy-4-(4-fluoro-3-(4-(5-(trifluoromethyl)pyrimidin-2-yl)octahydropyrrolo[3,2-b]pyrrole-1-carbonyl)benzyl)phthalazin-1(2H)-one]
Second: CN(C(=O)C1CC1)C1CN(C(=O)c2cc(Cc3n[nH]c(=O)c4ccc(OC5CCC5)cc34)ccc2F)C1 [Example 121, N-(1-(5-((7-Cyclobutoxy-4-oxo-3,4-dihydrophthalazin-1-yl)methyl)-2-fluorobenzoyl)azetidin-3-yl)-N-methylcyclopropanecarboxamide]
The IC50 of the first is lower: 50 to 100 nM for the first, 500 to 2000 nM for the second. The first is the more potent here.

First: COCc1nnc2n1CCN(C(=O)c1cc(Cc3n[nH]c(=O)c4ccc(OC5CCC5)cc34)ccc1F)C2 [Example 167, 6-Cyclobutoxy-4-(4-fluoro-3-(3-(methoxymethyl)-5,6,7,8-tetrahydro-[1,2,4]triazolo[4,3-a]pyrazine-7-carbonyl)benzyl)phthalazin-1(2H)-one]
Second: COc1c(Oc2ccccc2)ccc2c(=O)[nH]nc(Cc3ccc(F)c(C(=O)N4CCN(c5ccc(C#N)cn5)CC4)c3)c12 [Example 89, 6-(4-(2-Fluoro-5-((8-methoxy-4-oxo-7-phenoxy-3,4-dihydrophthalazin-1-yl)methyl)benzoyl)piperazin-1-yl)nicotinonitrile]
The IC50 of the first is lower: under 50 nM for the first, 50 to 100 nM for the second.

Compared with `CC#Cc1ccc2c(=O)[nH]nc(Cc3ccc(F)c(C(=O)NC(C)c4nnc(C(F)(F)F)o4)c3)c2c1` (stereo not drawn) [Example 200, 2-Fluoro-5-((4-oxo-7-(prop-1-ynyl)-3,4-dihydrophthalazin-1-yl)methyl)-N-(1-(5-(trifluoromethyl)-1,3,4-oxadiazol-2-yl)ethyl)benzamide], `N#Cc1ccc(N2CCC3C2CCN3C(=O)c2cc(Cc3n[nH]c(=O)c4ccc(OC5CCC5)cc34)ccc2F)nc1` (stereo not drawn) [Example 111, 6-(4-(5-((7-Cyclobutoxy-4-oxo-3,4-dihydrophthalazin-1-yl)methyl)-2-fluorobenzoyl)hexahydropyrrolo[3,2-b]pyrrol-1(2H)-yl)nicotinonitrile] is lower in IC50: over 2000 nM for the first, 100 to 500 nM for the second. The second is the more potent here.

First: N#Cc1ccc(N2CCN(C(=O)c3cc(Cc4n[nH]c(=O)c5ccc(CC(F)(F)F)cc45)ccc3F)CC2)nc1 [Example 183, 6-(4-(2-Fluoro-5-((4-oxo-7-(2,2,2-trifluoroethyl)-3,4-dihydrophthalazin-1-yl)methyl)benzoyl)piperazin-1-yl)nicotinonitrile]
Second: O=C(c1cc(Cc2n[nH]c(=O)c3ccc(OC4CCC4)cc23)ccc1F)N1CC(Nc2ncc(C(F)(F)F)cn2)C1 [Example 102, 6-Cyclobutoxy-4-(4-fluoro-3-(3-((5-(trifluoromethyl)pyrimidin-2-yl)amino)azetidine-1-carbonyl)benzyl)phthalazin-1(2H)-one]
The IC50 of the first is lower: under 50 nM for the first, 50 to 100 nM for the second. The first is the more potent here.

`CC#Cc1ccc2c(=O)[nH]nc(Cc3ccc(F)c(C(NCCN(CC)c4ccc(C#N)cn4)C(F)(F)F)c3)c2c1` (stereo not drawn) [Example 78, 6-(Ethyl(2-((2,2,2-trifluoro-1-(2-fluoro-5-((4-oxo-7-(prop-1-yn-1-yl)-3,4-dihydrophthalazin-1-yl)methyl)phenyl)ethyl)amino)ethyl)amino)nicotinonitrile] gave an IC50 of over 2000 nM.
